Reference: ChEMBL document CHEMBL5465560, “Selectivity Literature for EUbOPEN Chemogenomic Library” (2024)
Blank lines part the entries; values can stand above or below the compound they belong to.

Key:
[1] = biological target: T1, cGMP-dependent protein kinase 2 (Homo sapiens) (UniProt Q13237); conditions: at 10 µM
T1 sequence (whole entry): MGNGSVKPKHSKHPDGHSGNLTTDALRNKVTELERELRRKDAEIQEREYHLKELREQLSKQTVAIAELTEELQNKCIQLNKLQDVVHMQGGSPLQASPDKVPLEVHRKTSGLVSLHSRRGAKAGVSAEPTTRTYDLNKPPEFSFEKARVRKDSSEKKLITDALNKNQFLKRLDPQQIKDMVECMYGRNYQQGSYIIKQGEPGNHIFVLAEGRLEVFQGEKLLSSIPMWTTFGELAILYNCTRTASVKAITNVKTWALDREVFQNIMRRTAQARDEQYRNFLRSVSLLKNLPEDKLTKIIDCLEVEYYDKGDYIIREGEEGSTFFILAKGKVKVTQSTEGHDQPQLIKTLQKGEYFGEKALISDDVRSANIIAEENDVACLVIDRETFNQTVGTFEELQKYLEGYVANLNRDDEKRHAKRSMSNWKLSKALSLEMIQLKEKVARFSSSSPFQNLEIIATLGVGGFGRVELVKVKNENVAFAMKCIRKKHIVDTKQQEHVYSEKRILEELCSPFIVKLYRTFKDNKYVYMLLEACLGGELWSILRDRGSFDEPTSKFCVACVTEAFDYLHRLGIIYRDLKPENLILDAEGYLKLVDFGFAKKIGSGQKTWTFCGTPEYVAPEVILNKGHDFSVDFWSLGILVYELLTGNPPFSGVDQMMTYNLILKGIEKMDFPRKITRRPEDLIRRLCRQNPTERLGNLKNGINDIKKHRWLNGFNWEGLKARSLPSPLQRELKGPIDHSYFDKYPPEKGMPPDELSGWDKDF

[2] = biological target: T2, Serine/threonine-protein kinase Chk1 (Homo sapiens) (UniProt O14757); conditions: at 10 µM
T2 sequence (whole entry): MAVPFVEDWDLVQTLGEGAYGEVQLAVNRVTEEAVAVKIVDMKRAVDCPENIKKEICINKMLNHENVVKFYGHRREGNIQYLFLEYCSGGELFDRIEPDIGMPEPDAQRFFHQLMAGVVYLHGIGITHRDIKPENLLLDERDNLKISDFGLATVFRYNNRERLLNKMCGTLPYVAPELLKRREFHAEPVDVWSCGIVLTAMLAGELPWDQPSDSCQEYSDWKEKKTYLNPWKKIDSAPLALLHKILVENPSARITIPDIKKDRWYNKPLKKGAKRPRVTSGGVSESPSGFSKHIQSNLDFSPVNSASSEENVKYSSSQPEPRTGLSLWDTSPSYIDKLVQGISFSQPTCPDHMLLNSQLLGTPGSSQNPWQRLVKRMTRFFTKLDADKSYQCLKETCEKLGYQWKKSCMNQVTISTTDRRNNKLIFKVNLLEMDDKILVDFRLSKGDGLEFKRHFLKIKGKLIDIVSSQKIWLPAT

[3] = biological target: Mitogen-activated protein kinase 14 (Homo sapiens, UniProt Q16539); experiment: Selectivity interaction (Millipore kinase profiler) EUB0000124b MAPK14; conditions: at 10 µM
[4] = biological target: Tyrosine-protein kinase Fes/Fps (Homo sapiens) (UniProt P07332); experiment: Selectivity interaction (KinomeScan (DiscoverX)) EUB0000045b FES
[5] = biological target: Wee1-like protein kinase 2 (Homo sapiens) (UniProt P0C1S8); experiment: Selectivity interaction (KinomeScan (DiscoverX)) EUB0000229b WEE2; conditions: at 10 µM
[6] = biological target: 5'-AMP-activated protein kinase catalytic subunit alpha-2 (Homo sapiens) (UniProt P54646); experiment: Selectivity interaction (KinomeScan (DiscoverX)) EUB0000666a PRKAA2; conditions: at 10 µM
[7] = biological target: Calcium/calmodulin-dependent protein kinase type II subunit alpha (Homo sapiens, UniProt Q9UQM7); experiment: Selectivity interaction (KinomeScan (DiscoverX)) EUB0000092b CAMK2A; conditions: at 10 µM
[8] = biological target: STE20-like serine/threonine-protein kinase (Homo sapiens, UniProt Q9H2G2); experiment: Selectivity interaction (KinomeScan (DiscoverX)) EUB0000092b SLK; conditions: at 10 µM
[9] = biological target: T3, Serine/threonine-protein kinase Nek2 (Homo sapiens) (UniProt P51955); experiment: Selectivity interaction (Kinase panel (Z-LYTE Assay)) EUB0001632a NEK2; conditions: at 10 µM
T3 sequence (whole entry): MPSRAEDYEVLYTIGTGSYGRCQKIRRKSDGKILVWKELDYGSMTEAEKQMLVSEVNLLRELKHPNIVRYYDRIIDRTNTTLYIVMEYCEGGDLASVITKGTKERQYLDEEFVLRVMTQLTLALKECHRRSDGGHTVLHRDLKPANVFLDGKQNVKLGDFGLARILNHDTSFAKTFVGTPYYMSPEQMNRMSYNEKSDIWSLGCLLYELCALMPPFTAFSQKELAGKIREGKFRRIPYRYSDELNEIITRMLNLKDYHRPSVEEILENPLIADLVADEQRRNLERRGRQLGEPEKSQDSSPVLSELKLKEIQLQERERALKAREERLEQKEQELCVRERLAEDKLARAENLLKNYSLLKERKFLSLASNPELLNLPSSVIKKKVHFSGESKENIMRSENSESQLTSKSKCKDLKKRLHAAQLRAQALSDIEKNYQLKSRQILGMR

Chain of Tyrosine-protein kinase Fes/Fps (Homo sapiens) (P07332 whole entry): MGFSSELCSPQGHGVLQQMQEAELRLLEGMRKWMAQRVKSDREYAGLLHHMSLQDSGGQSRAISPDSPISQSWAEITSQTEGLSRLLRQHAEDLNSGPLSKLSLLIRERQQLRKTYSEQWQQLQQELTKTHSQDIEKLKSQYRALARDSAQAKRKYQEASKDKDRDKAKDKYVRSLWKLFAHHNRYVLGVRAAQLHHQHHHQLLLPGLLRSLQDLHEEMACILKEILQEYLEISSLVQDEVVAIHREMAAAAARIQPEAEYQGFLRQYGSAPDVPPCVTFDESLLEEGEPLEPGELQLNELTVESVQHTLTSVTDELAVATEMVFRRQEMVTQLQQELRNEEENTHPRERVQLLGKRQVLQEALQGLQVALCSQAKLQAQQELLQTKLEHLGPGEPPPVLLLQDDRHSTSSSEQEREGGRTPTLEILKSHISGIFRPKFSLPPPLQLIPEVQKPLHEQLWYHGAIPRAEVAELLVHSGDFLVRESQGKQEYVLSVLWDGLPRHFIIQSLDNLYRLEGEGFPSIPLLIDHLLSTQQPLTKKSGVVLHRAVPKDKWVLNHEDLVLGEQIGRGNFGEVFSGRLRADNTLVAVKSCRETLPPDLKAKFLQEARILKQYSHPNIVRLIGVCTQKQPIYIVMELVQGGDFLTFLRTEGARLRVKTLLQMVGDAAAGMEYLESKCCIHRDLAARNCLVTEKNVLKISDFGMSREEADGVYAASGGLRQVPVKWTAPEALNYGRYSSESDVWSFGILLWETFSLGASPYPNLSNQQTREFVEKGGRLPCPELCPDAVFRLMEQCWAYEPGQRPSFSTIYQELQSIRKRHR
Chain of 5'-AMP-activated protein kinase catalytic subunit alpha-2 (Homo sapiens) (P54646 whole entry, looked up): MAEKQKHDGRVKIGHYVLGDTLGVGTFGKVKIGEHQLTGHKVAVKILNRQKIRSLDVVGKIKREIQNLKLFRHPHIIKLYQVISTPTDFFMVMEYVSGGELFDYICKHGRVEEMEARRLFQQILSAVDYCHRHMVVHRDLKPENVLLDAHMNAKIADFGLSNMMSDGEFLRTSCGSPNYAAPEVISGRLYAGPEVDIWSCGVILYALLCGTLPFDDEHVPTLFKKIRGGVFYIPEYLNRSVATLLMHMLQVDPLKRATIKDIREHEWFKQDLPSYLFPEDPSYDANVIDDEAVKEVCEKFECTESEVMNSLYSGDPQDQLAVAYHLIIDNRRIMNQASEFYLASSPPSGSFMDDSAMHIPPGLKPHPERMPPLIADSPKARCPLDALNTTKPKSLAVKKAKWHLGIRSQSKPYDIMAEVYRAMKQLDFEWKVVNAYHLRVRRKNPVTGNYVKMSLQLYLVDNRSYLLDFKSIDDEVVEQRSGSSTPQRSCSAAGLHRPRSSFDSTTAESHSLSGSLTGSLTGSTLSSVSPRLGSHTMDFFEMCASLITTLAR
Chain of STE20-like serine/threonine-protein kinase (Q9H2G2 whole entry, looked up): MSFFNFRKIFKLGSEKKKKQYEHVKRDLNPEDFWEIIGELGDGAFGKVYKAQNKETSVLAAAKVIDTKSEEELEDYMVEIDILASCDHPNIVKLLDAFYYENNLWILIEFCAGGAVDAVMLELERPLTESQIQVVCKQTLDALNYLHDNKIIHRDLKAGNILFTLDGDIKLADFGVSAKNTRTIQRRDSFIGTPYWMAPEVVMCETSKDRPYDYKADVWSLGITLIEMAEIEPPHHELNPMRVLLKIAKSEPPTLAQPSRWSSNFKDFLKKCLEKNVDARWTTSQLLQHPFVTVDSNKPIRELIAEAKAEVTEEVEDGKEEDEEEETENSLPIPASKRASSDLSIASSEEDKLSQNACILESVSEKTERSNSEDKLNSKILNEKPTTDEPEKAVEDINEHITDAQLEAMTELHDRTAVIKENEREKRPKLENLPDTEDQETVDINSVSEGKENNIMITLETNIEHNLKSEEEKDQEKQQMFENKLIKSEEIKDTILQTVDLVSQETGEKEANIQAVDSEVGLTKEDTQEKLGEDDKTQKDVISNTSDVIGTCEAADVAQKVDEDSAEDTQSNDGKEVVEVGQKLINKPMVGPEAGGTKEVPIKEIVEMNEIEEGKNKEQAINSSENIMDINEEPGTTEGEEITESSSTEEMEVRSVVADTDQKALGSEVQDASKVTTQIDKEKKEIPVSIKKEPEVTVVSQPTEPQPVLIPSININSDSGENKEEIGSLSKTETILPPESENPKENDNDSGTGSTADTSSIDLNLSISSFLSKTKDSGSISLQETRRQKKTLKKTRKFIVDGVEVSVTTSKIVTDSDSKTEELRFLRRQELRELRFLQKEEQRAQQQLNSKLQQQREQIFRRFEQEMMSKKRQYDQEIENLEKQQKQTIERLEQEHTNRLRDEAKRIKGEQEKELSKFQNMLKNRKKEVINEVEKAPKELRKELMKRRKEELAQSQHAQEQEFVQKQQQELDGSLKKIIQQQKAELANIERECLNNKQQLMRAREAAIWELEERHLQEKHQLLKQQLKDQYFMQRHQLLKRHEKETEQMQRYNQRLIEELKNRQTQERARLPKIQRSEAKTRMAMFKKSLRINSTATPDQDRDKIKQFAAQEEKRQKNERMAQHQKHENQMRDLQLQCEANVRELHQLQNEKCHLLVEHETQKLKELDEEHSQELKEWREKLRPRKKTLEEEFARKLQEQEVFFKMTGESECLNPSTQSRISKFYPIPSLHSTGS
Chain of Calcium/calmodulin-dependent protein kinase type II subunit alpha (Q9UQM7 whole entry): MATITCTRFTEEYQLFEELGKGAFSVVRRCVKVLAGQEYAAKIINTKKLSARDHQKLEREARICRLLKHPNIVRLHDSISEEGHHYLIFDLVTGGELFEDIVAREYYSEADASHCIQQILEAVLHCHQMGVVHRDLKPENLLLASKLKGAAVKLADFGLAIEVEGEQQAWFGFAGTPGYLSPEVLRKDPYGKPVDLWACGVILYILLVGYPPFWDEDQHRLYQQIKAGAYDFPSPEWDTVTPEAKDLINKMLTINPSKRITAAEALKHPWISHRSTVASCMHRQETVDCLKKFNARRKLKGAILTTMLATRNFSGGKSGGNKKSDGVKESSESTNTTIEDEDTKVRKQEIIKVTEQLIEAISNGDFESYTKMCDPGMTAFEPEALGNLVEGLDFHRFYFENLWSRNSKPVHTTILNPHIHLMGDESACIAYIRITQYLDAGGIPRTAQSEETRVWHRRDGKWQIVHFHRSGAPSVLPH
Chain of Mitogen-activated protein kinase 14 (Q16539 whole entry): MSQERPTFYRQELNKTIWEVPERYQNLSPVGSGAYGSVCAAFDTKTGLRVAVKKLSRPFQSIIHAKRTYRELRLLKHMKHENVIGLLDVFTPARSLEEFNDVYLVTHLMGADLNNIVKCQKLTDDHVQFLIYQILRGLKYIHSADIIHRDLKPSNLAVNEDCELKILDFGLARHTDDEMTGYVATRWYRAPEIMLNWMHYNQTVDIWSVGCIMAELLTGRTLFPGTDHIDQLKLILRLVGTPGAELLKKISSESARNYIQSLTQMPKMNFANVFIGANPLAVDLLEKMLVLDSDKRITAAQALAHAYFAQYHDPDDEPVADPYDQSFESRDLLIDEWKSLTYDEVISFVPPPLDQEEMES
Chain of Wee1-like protein kinase 2 (Homo sapiens) (P0C1S8 whole entry, looked up): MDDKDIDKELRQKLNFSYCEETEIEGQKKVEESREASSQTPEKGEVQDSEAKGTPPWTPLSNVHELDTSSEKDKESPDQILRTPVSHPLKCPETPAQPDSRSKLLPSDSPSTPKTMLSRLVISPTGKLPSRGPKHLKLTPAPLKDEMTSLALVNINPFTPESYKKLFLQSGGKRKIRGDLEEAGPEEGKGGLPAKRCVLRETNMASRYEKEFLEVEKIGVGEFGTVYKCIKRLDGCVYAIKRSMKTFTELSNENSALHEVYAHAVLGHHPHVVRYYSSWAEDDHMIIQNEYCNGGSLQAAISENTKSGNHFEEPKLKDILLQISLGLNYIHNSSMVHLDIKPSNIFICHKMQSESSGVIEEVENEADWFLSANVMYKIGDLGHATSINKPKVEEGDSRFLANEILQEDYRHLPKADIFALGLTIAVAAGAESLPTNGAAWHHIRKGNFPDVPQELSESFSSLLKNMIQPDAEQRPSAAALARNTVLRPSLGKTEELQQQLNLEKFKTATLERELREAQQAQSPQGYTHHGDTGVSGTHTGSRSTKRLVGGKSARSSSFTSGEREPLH

% of control [1]: 100%
% of control [2]: 100%
Compound: CCN(CC)CCCCNc1ncc2cc(-c3cc(OC)cc(OC)c3)c(NC(=O)NC(C)(C)C)nc2n1

% of control [3]: 84%
Compound: CC(=O)Nc1cccc(-n2c(=O)n(C3CC3)c(=O)c3c(Nc4ccc(I)cc4F)n(C)c(=O)c(C)c32)c1

Compound: C=CC(=O)Nc1cc(-n2c(=O)ccc3cnc4ccc(-c5ccc(NS(C)(=O)=O)cc5)cc4c32)ccc1C
% of control ([4]; at 1 µM): 92%
% of control ([4]; at 10 µM): 100%

Compound: COc1cc(N(C)c2ccnc3ccc(C(F)(F)F)cc23)cc(OC)c1OC
% binding [5]: 87%

Compound: O=C(NOC[C@H](O)CO)c1ccc(F)c(F)c1Nc1ccc(I)cc1F
% of control [6]: 97%

Compound: CCC(=O)N1CCN(c2ccc(-n3c(=O)ccc4cnc5ccc(-c6cnc7ccccc7c6)cc5c43)cc2C(F)(F)F)CC1
% of control [7]: 93%
% of control [8]: 94%

% of control [9]: 1.81%
Compound: Cn1cc(-n2cnc3c(NCc4nc5cc(Cl)c(Cl)cc5[nH]4)nc(N4CCOCC4)nc32)cn1
